Measured values from patent US20250049810A1, “METHODS OF TREATING A RAS PROTEIN-RELATED DISEASE OR DISORDER” (Revolution Medicines, Inc., priority 2023, published 2025).
Read-outs that look alike come from different tables or passages of the source.

Assays:
[1] = Phase 1/1b study: Compound A pharmacokinetics in patients; assay type: in vivo, human; details: for Tmax / half-life: human, oral, plasma; for Tmax: read-out: median Tmax
Procedure: (§1) This Example describes the study design of a Phase 1/1b study of Compound A in patients with advanced KRAS^G12C solid tumors with the first patient dosed in September 2022. There are two components in this study: Part 1—Dose Escalation and Part 2—Dose Expansion (FIG. 1). In Part 1—Dose Escalation, an assessment of safety and tolerability are conducted, and the candidate recommended Phase 2 dose and schedule (RP2DS) are determined for further testing in the Dose Expansion Part. Part 2 of the study evaluates the safety and antitumor effects of the candidate RP2DS in KRAS^G12C-mutant solid tumors.
Whole-blood samples were collected from all subjects to measure Compound A concentrations, circulating tumor deoxyribonucleic acid (ctDNA) and other biomarkers. Samples for pharmacodynamic assays collected in Cycle 1 and beyond. Paired pretreatment and on treatment fresh tumor samples collected from any subject if consent is obtained and at the discretion of the treating physician. Optional collection of pre-study treatment fresh biopsy should be performed prior to C1D1 dosing. An optional on-study treatment biopsy may be obtained with subject consent and at the discretion of the treating physician. The primary purpose of the optional on-study treatment biopsies is to assess pharmacodynamic markers and previously acquired pre-study treatment markers of resistance. Biopsy assessment with study intervention treatment over time may also help with better understanding of the shift in mutational profile with study treatment, as well as cellular clonality changes over time. Where tumor tissue allows, predictive biomarkers of response are explored.
Initially Compound A will be administered orally QD for a treatment cycle of 21 days. BID dosing be administered to subjects who are enrolled into Dose level 3 and higher dose levels during escalation as well. For subjects on BID dosing, the second dose of Compound A is administered approximately 10 to 12 hours after the first dose is administered.
(§2) Patients with previously treated, advanced […] solid tumors received escalating doses of Compound A. Doses included 50 mg, 100 mg, and 200 mg once daily (QD) and 100 mg, 200 mg, 300 mg, and 400 mg twice daily (BID). Each cycle had 21 days, with efficacy assessed every 6 weeks. Additional patients were enrolled to backfill cohorts at dose levels that cleared dose-limiting toxicity evaluation to further characterize PK, safety, and anti-tumor activity of Compound A as described in Example 1.

[2] = Phase 1/1b study: safety, treatment-related adverse events; assay type: in vivo, human
Procedure: as §1
Safety assessments and procedures were performed. Real-time safety monitoring is performed to ensure that the protocol-specified dose modification guidelines are followed. In addition, C1 safety and available PK and pharmacodynamic data reviewed and evaluated at each Compound A dose level/schedule to determine whether enrollment into the next higher dose-level cohort could proceed. A modified schedule evaluated in which Compound A may be administered more or less frequently than once daily (QD). The totality of the data from dose escalation cohorts is reviewed and one or more candidate RP2DS for expansion in Part 2 can be recommended.
as §2

KRAS^G12C NSCLC = assay: Phase 1/1b study: tumor response per RECIST 1.1 in KRAS G12C NSCLC; assay type: in vivo, human; details: for patients who responded (response rate): all doses
Procedure: as §1
(§3) Subjects are assessed for response using Response Evaluation Criteria in Solid Tumors (version 1.1) (RECIST [v1.1]). All subjects with previous or current, known or suspected brain metastases must have a magnetic resonance imaging (MRI) of the brain (unless contraindicated) performed within 28 days prior to the first dose of Compound A (C1D1). Disease response for clinical management of subjects were assessed per RECIST (v1.1).
as §2

KRAS^G12C CRC = assay: Phase 1/1b study: tumor response per RECIST 1.1 in KRAS G12C CRC; assay type: in vivo, human
Procedure: as §1, §3, §2

[3] = tested on: xenograft models of human KRAS^G12C cancers; assay: Xenograft / preclinical models of KRAS G12C cancers; assay type: in vivo
[4] = tested on: human cancer cell lines harboring the KRAS^G12C mutation; assay: Growth suppression and apoptosis in KRAS G12C cancer cell lines; assay type: cell-based; details: multiple human cancer cell lines harboring KRAS^G12C
[5] = 47 patients, all doses, as of Aug. 8, 2023
[6] = FIG. 3, CRC naive to KRAS^G12C(OFF) inhibitor, RECIST 1.1

SMILES: CCn1c(-c2cccnc2[C@H](C)OC)c2c3cc(ccc31)N1CCO[C@@H](C[C@H](NC(=O)[C@H](C(C)C)N(C)C(=O)C3(F)CCN(C(=O)C#CC(C)(C)N(C)C)CC3)C(=O)N3CCC[C@H](N3)C(=O)OCC(C)(C)C2)C1 (atropisomer, axis not shown) [Compound A]
- Tmax ([1]; 13 subjects, data as of May 15, 2023): 1 h
- half-life ([1]; 13 subjects, data as of May 15, 2023, read-out: terminal half-life in the plasma): < 3 h
- Tmax ([1]; patients, data as of Aug. 8, 2023): 1 h
- half-life ([1]; patients, data as of Aug. 8, 2023, read-out: terminal half-life (converted)): 1.8 h
- exposure ([1]; patients, escalating oral doses 50 mg QD to 400 mg BID): dose-dependent exposure
- AUC ([1]; range of 50-200 mg): increased in a dose-dependent manner
- Cmax ([1]; range of 50-200 mg): increased in a dose-dependent manner
- mean accumulation ratio (C1D15 AUC vs C1D1 AUC) ([1]; repeated daily dosing): less than 2 ×
- Gr3 TRAE QTc prolongation, number of patients ([2]; 200 mg BID): 1 patients
- Gr3 TRAE QTc prolongation, number of patients ([2]; 300 mg): 1 patients
- Gr3 TRAE QTc prolongation, number of patients ([2]; 400 mg BID): 3 patients
- TRAE QTc prolongation, patients [2, 5]: 21%
- TRAE diarrhea, patients [2, 5]: 30%
- TRAE fatigue, patients [2, 5]: 15%
- TRAE nausea, patients [2, 5]: 34%
- TRAE vomiting, patients [2, 5]: 15%
- Gr3 TRAE QTc prolongation, number of patients ([2]; all doses): 5 patients
- treatment-emergent AE that led to treatment discontinuation ([2]; all doses): No patients
- treatment-related Gr4 or 5 AE ([2]; all doses): No patients
- treatment-related ≥Gr3 hepatotoxicity ([2]; all doses): No treatment-related ≥Gr3 hepatotoxicity was observed
- patients with average QTc interval >501 ms ([2]; out of the 5 patients with Gr3 QTc prolongation): one
- confirmed PR, number of patients (KRAS^G12C NSCLC; FIG. 2, NSCLC, RECIST 1.1): 5
- unconfirmed PR, number of patients (KRAS^G12C NSCLC; FIG. 2, NSCLC, RECIST 1.1): 3
- disease control rate (KRAS^G12C NSCLC; NSCLC, both sets of patients (G12C(OFF) inhibitor naive and pretreated)): 100%
- patients who responded (response rate) (KRAS^G12C NSCLC; NSCLC, not previously treated with G12C(OFF) inhibitor, three of seven, as of Oct. 5, 2023): 43%
- patients who responded (response rate) (KRAS^G12C NSCLC; NSCLC, previously treated with G12C(OFF) inhibitor, 5 of 10, as of Oct. 5, 2023): 50%
- disease control rate (KRAS^G12C CRC; CRC, not previously treated with G12C(OFF) inhibitor): 80%
- patients with partial response (KRAS^G12C CRC; CRC, not previously treated with G12C(OFF) inhibitor, 8 of 20, as of Oct. 5, 2023): 40%
- confirmed PR, number of patients (KRAS^G12C CRC; [6]): 5
- unconfirmed PR, number of patients (KRAS^G12C CRC; [6]): 3
- response in preclinical models compared to adagrasib ([3]; compared to the KRAS^G12C(OFF) inhibitor adagrasib): superior response rate, deeper regressions and longer duration of response
- anti-tumor activity in vivo ([3]; multiple xenograft models of human KRAS^G12C cancers): dose-dependent and durable tumor regressions
- effect on cancer cell lines in vitro [4]: growth suppression and apoptosis
